Laboratory results from PubChem BioAssay (NCI).
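A five-concentration, 48-hour dose response in 96-well plates underlies each endpoint, interpolated linearly between surrounding concentrations. TGI: total growth inhibition.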 Where a SMILES comes first, the peptide text is derived from it. [ ]: non-standard residue; d: D form. 2Nal = N[CH](Cc1ccc2ccccc2c1)C(=O)O

Experiments:
Experiment in all cases: NCI-60 cell line screen, 48 h
[1] = tested on: SNB-78 CNS
[2] = tested on: M19-MEL melanoma
[3] = tested on: DMS 114 small cell lung
[4] = tested on: HOP-18 NSCLC
[5] = tested on: T-47D breast
[6] = tested on: DU-145 prostate
[7] = tested on: NCI/ADR-RES ovarian
[8] = tested on: MCF7 breast
[9] = tested on: PC-3 prostate
[10] = tested on: HS 578T breast
[11] = tested on: MDA-MB-435
[12] = tested on: BT-549 breast

SMILES	TGI [1]	TGI [2]	TGI [3]	TGI [4]	also measured
CSc1s[s+]c(SC)c1[O-]	> 100 µM	29.5 µM	34.6 µM	> 100 µM	
COc1ccc(OC)c(CCc2cc(OC)c(OC)cc2C)c1	92.7 µM	> 100 µM	72.9 µM		
COc1ccc(C(=O)C(C(=O)C(=O)Nc2nc3ccc(OC)cc3s2)c2ccc(OC)cc2)cc1 (stereo unspecified)	> 100 µM	> 100 µM	> 100 µM	> 100 µM	
Cc1ccc(C(=O)/C=C/c2ccccc2Cl)cc1	46.8 µM	33.5 µM	35.5 µM	76.1 µM	
Oc1cccc(C2SCc3nc4ccccc4n32)c1 (stereo unspecified)	> 100 µM		> 100 µM	> 100 µM	
O=C(Nc1cc(C(F)(F)F)ccc1Cl)C(=O)C(C(=O)c1ccc2ccccc2c1)C1OC(=O)c2ccccc21 (stereo unspecified)		46.4 µM	52.9 µM		
COC1OC(C)C(OC(=O)C(C)(C)C)C(C)(O)C1O (stereo unspecified)	> 100 µM	> 100 µM		> 100 µM	
Fc1cccc(F)c1C1SCc2nc3ccccc3n21 (stereo unspecified)	> 100 µM	> 100 µM		> 100 µM	
CC(NC(=O)C(N)Cc1ccccc1)C(=O)NC(Cc1ccc(O)cc1)C(=O)NC(Cc1c[nH]c2ccccc12)C(=O)NC(CCCCN)C(=O)NC(C(=O)NC(C)C(=O)NC(Cc1ccc2ccccc2c1)C(N)=O)C(C)C (stereo unspecified) (H-FAYWKVA[2Nal]-NH2; configuration not given here)	> 100 µM	74 µM	92.6 µM	46.3 µM	TGI [5]: > 12.5 µM; TGI [6]: > 12.5 µM; TGI [7]: > 12.5 µM; TGI [8]: > 12.5 µM; TGI [9]: > 12.5 µM; TGI [10]: > 12.5 µM; TGI [11]: > 12.5 µM
CN/N=C(\C)CC(=O)Nc1cccc(Cl)c1C	> 100 µM	> 100 µM	> 100 µM	> 100 µM	
Cc1ccc(NC(=O)SCCC(=O)O)cc1NC(=O)SCCC(=O)O	> 100 µM		> 100 µM		
CC1CC(=O)C(C(O)CC2CC(=O)N(c3ccccc3)C(=O)C2)C(C)C1 (stereo unspecified)	> 100 µM	> 100 µM	> 100 µM	> 100 µM	
COc1ccc(-c2c(N)[n+]([O-])c3cc(C)c(C)cc3[n+]2[O-])cc1OC	> 100 µM	> 100 µM	67.8 µM	> 100 µM	
CCCCCCCCCCCCCCCCCC(=O)NCCCNCCCNC(=O)CCCCCCCCCCCCCCCCC		> 100 µM	> 100 µM	> 100 µM	
O=C(O)/C(O)=C1/C=C(c2ccccc2)c2ccccc21	> 100 µM	60.1 µM	37.6 µM	47.4 µM	
Cc1ccccc1NC(=O)C(=O)Cc1nc2ccccc2s1	> 100 µM	> 100 µM	> 100 µM	> 100 µM	
C=C(CO)CC(O)c1ccccc1 (stereo unspecified)	> 100 µM	> 100 µM	> 100 µM		

SMILES	TGI [1]	TGI [2]	TGI [3]	TGI [4]	also measured
O=C(O)C1Cc2nc[nH]c2CN1 (stereo unspecified)	> 100 µM	> 100 µM	> 100 µM	> 100 µM	
CC1=CCC2(C#N)CCC1C2=O (stereo unspecified)	> 100 µM	> 100 µM	> 100 µM		
CC(C)OCN1COCN=C1NC#N		> 100 µM	> 100 µM	> 100 µM	
N/C(=N\C(=S)N1CCCCC1)N1CCCCC1	> 100 µM	> 100 µM	> 100 µM	> 100 µM	
O=C1C=C(Br)C(=O)C(Br)=C1	> 100 µM	> 89.6 µM	> 100 µM	> 100 µM	
COc1cc(C2C(C(=O)O)=C(C)Oc3cc4c(cc32)OCO4)cc(OC)c1OC (stereo unspecified)	> 100 µM	> 100 µM	50.6 µM	> 100 µM	
CCCCCN(CCCCC)C(=O)[C@@H](CCC(=O)OCc1ccccc1)NC(=O)c1cc2ccccc2[nH]1	> 100 µM		> 100 µM	> 100 µM	
COC(=O)C(C(=O)C(=O)Nc1ccccc1OC)c1csc(-n2nc(-c3ccccc3)cc2-c2ccccc2)n1 (stereo unspecified)	> 100 µM	> 100 µM	> 100 µM	> 100 µM	
CC(NC1CCC[C@H]1O)c1ccccc1 (mixture of isomers)	> 100 µM	> 100 µM	> 100 µM	> 100 µM	
CC(=O)O[C@H]1CCC2[C@@H]3CCC4C(=O)c5oncc5C[C@]4(C)C3CC[C@@]21C (stereo partly specified)	> 100 µM	> 100 µM	> 100 µM		
O=C(C#Cc1c[nH]c(=O)[nH]c1=O)c1ccccc1	38.5 µM	27.1 µM	35.4 µM	29.2 µM	
Cc1oc2c(c1C(=O)c1ccccc1)C(=O)c1ccccc1C2=O	> 100 µM	4.93 µM	8.03 µM	30.4 µM	TGI [5]: 7.04 µM; TGI [6]: 24.6 µM; TGI [12]: 19.9 µM; TGI [7]: 20.7 µM; TGI [8]: 10.6 µM; TGI [9]: 21.7 µM; TGI [10]: > 100 µM; TGI [11]: 2.97 µM
CN(C)CC1(C)CC/C(=C\c2ccc3c(c2)OCO3)C1=O (stereo unspecified)	> 100 µM	> 100 µM	> 100 µM	> 100 µM	
O=C1CCC(=O)c2cc(Br)ccc2N1	> 100 µM	> 100 µM	> 100 µM	> 100 µM	
Nc1nc(N)c(-c2ccccc2)c(C(=O)Nc2ccc(Cl)c(Cl)c2)n1	> 100 µM	> 100 µM	> 100 µM	> 100 µM	
COC(=O)C1CCc2c(OC)ccc(OC)c2C1=O (stereo unspecified)	> 100 µM	> 100 µM	> 100 µM	> 100 µM	
CC1=CC(C)C(O)C(C)/C=C/C(O)C/C=C(/C)C(=O)CC(O)C(C)\C=C/C=C/C=C\C(=O)NC2=C(O)c3cc(C)c(O)c(c3C(=O)C2=O)C1=O (stereo unspecified)					TGI [5]: > 100 µM; TGI [6]: > 100 µM; TGI [12]: > 100 µM; TGI [7]: > 100 µM; TGI [8]: 65 µM; TGI [9]: > 100 µM; TGI [10]: > 100 µM; TGI [11]: > 100 µM
